Experimental data published in article PMC11644009 (Molecules, 2024).

Key:
[1] = system: hemagglutinating activity of influenza A/Vladivostok/2/09 (H1N1) virus; assay: Effect on hemagglutinating activity of influenza virus; settings: maximum dose 1 mg/100 μL
Description: The hemagglutinating activity of viruses was determined according to the standard method [53] using a 0.75% suspension of chicken erythrocytes. When determining the effect of the studied sample on hemagglutinating properties, the sample in different doses was mixed with the virus, and after 30 min of incubation at 37 °C, the hemagglutinating activity was determined using the standard method.

[2] = system: influenza virus A/Vladivostok/2/09 (H1N1); assay: Virus inhibitory activity on chicken embryo model (chemical therapeutic index); assay type: in vivo; settings: samples 0.0016%–0.2% (0.003–0.4 mg per chicken embryo), Rimantadine 10 µg/mL, Tamiflu 6 µg/mL
Description: Rimantadine® (Olainfarm, Olaine, Latvia), alpha-methyltricyclo[3.3.1.1/.7]decan-1-methanamine (in the form of hydrochloride)) was used as a comparison drug at a dose of 10 µg /mL and Tamiflu® (Oseltamivir, Hoffmann-La Roche, Basel, Switzerland, (3R,4R,5S)-4-acetylamino-5-amino-3-(1-ethylpropoxy)-1-cyclohexene-1-carboxylic acid ethyl […], phosphate)) at a dose of 6 µg /mL.
To determine the chemical therapeutic index (CTI), the virus inhibitory activity of samples was studied at concentrations from 0.0016% to 0.2%, which corresponded to doses of 0.003–0.4 mg per chicken embryo (0.06–8 mg/kg) (Table 2).

[3] = system: neuraminidase activity of influenza virus A/Vladivostok/2/09 (H1N1); assay: Effect on neuraminidase activity (fluorescent kit); assay type: biochemical; settings: maximum dose 1 mg/100 μL
Description: To determine the effect of lupinine derivatives 1–5 on neuraminidase activity, the maximum dose of 1 mg/100 μL was used. It was established (Figure 3) that compounds 4 and 5 were able to alter the neuraminidase activity of influenza viruses. It was shown that these two triazole-containing lupinines suppressed neuraminidase activity by no more than 40%.
The determination of the neuraminidase activity of the studied samples was carried out using a fluorescent kit in accordance with the manufacturer’s recommendations (AbCam, Cambridge, UK). The non-fluorescent neuraminidase substrate becomes highly fluorescent when cleaved by neuraminidase. The signal is easily read by fluorescence at Ex/Em = ~320/~450 nm.
Figure 3 The influence of the studied samples on neuraminidase activity.

[4] = system: influenza virus A/Vladivostok/2/09 (H1N1); assay type: in vivo; settings: compound 0.2%, 0.4 mg/ch.e. (8 mg/kg)

Compound	Suppression of hemagglutinating activity [1]	Chemical Therapeutic Index of the Studied Sample [2]	Suppression of neuraminidase activity [3]	Decrease in Influenza Virus Infectivity Titer, lg [4] [lg]
CCc1cc(C(=O)OCc2cn(C[C@@H]3CCCN4CCCC[C@H]34)nn2)c(O)c(C(C)(C)C)c1 [Compound 5, {1-[((1S,9aR)-Octahydro-2H-quinolizin-1-yl)methyl]-1H-1,2,3-triazol-4-yl}methyl-3-tert-butyl-2-hydroxy-5-ethylbenzoate]	no less than 25%	>100.0	no more than 40%	
CC(N)C12CC3CC(CC(C3)C1)C2 (stereo not drawn) [Rimantadine, alpha-methyltricyclo[3.3.1.1/.7]decan-1-methanamine, reference compound]		30		
O=Cc1ccc(OCc2cn(C[C@@H]3CCCN4CCCC[C@H]34)nn2)cc1 [Compound 4, 4-({1-[((1S,9aR)-Octahydro-2H-quinolizin-1-yl)methyl]-1H-1,2,3-triazol-4-yl}methoxy)benzaldehyde]		40.0	no more than 40%	
CCOC(=O)C1=C[C@@H](OC(CC)CC)[C@H](NC(C)=O)[C@@H](N)C1 [Tamiflu, (3R,4R,5S)-4-acetylamino-5-amino-3-(1-ethylpropoxy)-1-cyclohexene-1-carboxylic acid ethyl ether, phosphate, reference compound]		11.0		
COc1ccc(-c2cn(C[C@@H]3CCCN4CCCC[C@H]34)nn2)cc1 [Compound 1, (1S,9aR)-1-{[4-(4-Methoxyphenyl)-1H-1,2,3-triazol-1-yl]methyl}octahydro-2H-quinolizine]		64.0		
Cc1cccc(-c2cn(C[C@@H]3CCCN4CCCC[C@H]34)nn2)c1 [Compound 2, (1S,9aR)-1-{[4-(m-Tolyl)-1H-1,2,3-triazol-1-yl]methyl}octahydro-2H-quinolizine]		57.0		0.8
c1ccc(-c2cn(C[C@@H]3CCCN4CCCC[C@H]34)nn2)cc1 [Compound 3, (1S,9aR)-1-[(4-Phenyl-1H-1,2,3-triazol-1-yl)methyl]octahydro-2H-quinolizine]		8.1		0.0
